Source: US20230346747A1, “DIALKYL T[…] THEIR […] USES” (CAAMTECH, INC., priority 2020, published 2023)

How the values were obtained:
Assay type in all cases: in vitro ADME
[1] = In vitro plasma stability, human plasma; conditions: 37° C.; for Percent remaining after 2 h incubation / k: 1.0 µM; for half-life at 1 µM: both sexes, pH 7.4, read-out: T½ (converted); for k: pH 7.4, slope of log % remaining versus incubation time
Source text: (§1) Human plasma (Bioreclamation, Cat#: BRH470404, male:female=1:1,v:v); Rat plasma (HDB, Cat#: HDB_RsP_20221120, male:female=1:1,v:v); C57 Mouse plasma (HDB, Cat#: HDB_MsP_202201120, male:female=1:1,v:v); Male cynomolgus monkey plasma (RILD, Cat#: MP210107-P). Analytical grade inorganic salts were purchased from Sinopharm Chemical Reagent Co. (Shanghai, China). HPLC grade organic solvents were purchased from Sigma-Aldrich, USA. Distilled water, prepared from demineralized water, was used throughout the study.
(§2) Stock solution of test compound was provided in 100% DMSO. The stock solution for each compound was diluted into 100 µM with ACN(50%) and then diluted into plasma of different species (pH 7.4) to achieve a final concentration of 1.0 µM.
(§3) 1.0 µM of test compound in duplicate was incubated in plasma at 37° C. Aliquots of 50 µL or 80 µL sample were collected at 0, 0.25, 0.5, 1 and 2 h.
(§4) An aliquot of 50 µL samples were collected at various time points, and mixed with 300 µL of ice-cold 100% acetonitrile containing internal standard. After centrifuging the plate at 4000 rpm for 20 min, 50 µL of supernatants were added with 100 µL H2O, mix well and analyzed with UPLC-MS/MS.
(§5) A Waters liquid chromatographic system was used. Detection was performed on an API4000 Q-Trap and API5500 mass spectrometer equipped with TurbolonSpray (ESI) Interface (Applied Biosystems, Concord, Ontario, Canada). Analyst 1.5 and 1.6.2 software packages (Applied Biosystems) were used to control the LC-MS/MS system, as well as for data acquisition and processing.
(§6) Chromatographic separation was achieved on the Waters ACQUITY UPLC BEH C18 column (50*2.1 mm ID, 1.7 µm) and Thermo Scientific AccucoreTM PFP column(100*2.1 ID mm, 2.6 µm). The column temperature was maintained at ambient temperature (25° C.). The flow rate was maintained at 0.6 mL/min and the mobile phases used were according to Tables 5-7.
(§7) The peak area ratio of test compound to internal standard is plotted as a percentage of the relevant zero time point control (% Remained) for each reaction. The rate of metabolism (k) is the slope of the linear regression from log percentage remaining versus incubation time.

[2] = In vitro plasma stability, rat plasma; conditions: SD rat plasma, 37° C.; for half-life at 1 µM: both sexes, pH 7.4, read-out: T½ (converted)
Source text: as §1, §2, §3, §4, §5, §6, §7

[3] = In vitro plasma stability, mouse plasma; conditions: C57 mouse plasma, 37° C.; for Percent remaining after 2 h incubation / k: 1.0 µM; for half-life at 1 µM: both sexes, pH 7.4, read-out: T½ (converted); for k: pH 7.4
Source text: as §1, §2, §3, §4, §5, §6, §7

[4] = In vitro plasma stability, monkey plasma; conditions: cynomolgus monkey plasma, 37° C.; for half-life at 1 µM: male, pH 7.4, read-out: T½ (converted)
Source text: as §1, §2, §3, §4, §5, §6, §7

Question: For `CC(=O)Oc1cccc2[nH]cc(CCN(C)C)c12` [Compound 4-AcO-DMT, 4-acetoxy-N,N-dimethyltryptamine], which “Percent remaining after 2 h incubation” value [1] is on record?
Answer: Its value is 0.00%.

Question: And the half-life at 1 µM [1]?
Answer: The half-life at 1 µM was less than 0.125 h.

Question: What about the “Percent remaining after 2 h incubation” value ([2]; 1.0 µM) of the same molecule?
Answer: The value was 0.00%.

Question: And the half-life at 1 µM [2]?
Answer: Its half-life at 1 µM is less than 0.125 h.

Question: What about the “Percent remaining after 2 h incubation” value [3] of the same molecule?
Answer: Its value is 0.00%.

Question: What about the half-life at 1 µM [3] of the same molecule?
Answer: The half-life at 1 µM was less than 0.125 h.

Question: And the “Percent remaining after 2 h incubation” value ([4]; 1.0 µM)?
Answer: Its value is 0.00%.

Question: What about the half-life at 1 µM [4] of the same molecule?
Answer: Its half-life at 1 µM is less than 0.125 h.

Question: What does the source list for `COc1ccc([C@@H]2Sc3ccccc3N(CCN(C)C)C(=O)[C@@H]2OC(C)=O)cc1` [Diltiazem]?
Answer: Percent remaining after 2 h incubation [1]: 80.5%; half-life at 1 µM [1]: 6.4 h; Percent remaining after 2 h incubation ([2]; 1.0 µM): 78.8%; half-life at 1 µM [2]: 6.75 h; Percent remaining after 2 h incubation [3]: 87.9%; half-life at 1 µM [3]: 10.6 h; Percent remaining after 2 h incubation ([4]; 1.0 µM): 90.5%; half-life at 1 µM [4]: 12.8 h

Question: What does the source list for `CCN(CC)CCOC(=O)c1ccc(N)cc1` [Procaine]?
Answer: Percent remaining after 2 h incubation [1]: 0.00%; half-life at 1 µM [1]: < 0.125 h; Percent remaining after 2 h incubation ([2]; 1.0 µM): 52.0%; k ([2]; 1.0 µM, pH 7.4): 0.347; half-life at 1 µM [2]: 2 h; Percent remaining after 2 h incubation [3]: 0.00%; k [3]: 11.212; half-life at 1 µM [3]: < 0.125 h; Percent remaining after 2 h incubation ([4]; 1.0 µM): 0.00%; k ([4]; 1.0 µM, pH 7.4): 26.073

Question: Which results are given for `CN(C)CCc1c[nH]c2cccc(O)c12` [Psilocin]?
Answer: Percent remaining after 2 h incubation [1]: 97.9%; k [1]: 0.034; half-life at 1 µM [1]: 20.5 h; Percent remaining after 2 h incubation ([2]; 1.0 µM): 86.2%; k ([2]; 1.0 µM, pH 7.4): 0.092; half-life at 1 µM [2]: 7.54 h; Percent remaining after 2 h incubation [3]: 89.2%; k [3]: 0.048; half-life at 1 µM [3]: 14.5 h; Percent remaining after 2 h incubation ([4]; 1.0 µM): 92.8%; k ([4]; 1.0 µM, pH 7.4): 0.039; half-life at 1 µM [4]: 17.9 h

Question: What does the source list for `CN(C)CCc1c[nH]c2cccc(OP(=O)(O)O)c12` [Psilocybin]?
Answer: Percent remaining after 2 h incubation [1]: 19.4%; k [1]: 0.849; half-life at 1 µM [1]: 0.82 h; Percent remaining after 2 h incubation ([2]; 1.0 µM): 113%; T½ ([2]; 1.0 µM, pH 7.4): stable; k ([2]; 1.0 µM, pH 7.4): -0.066; Percent remaining after 2 h incubation [3]: 93.2%; k [3]: 0.008; half-life at 1 µM [3]: 91.5 h; Percent remaining after 2 h incubation ([4]; 1.0 µM): 113%; T½ ([4]; 1.0 µM, pH 7.4): stable; k ([4]; 1.0 µM, pH 7.4): -0.046
